Earlier results on two compounds are cited in patent US7741370B2, “Double salts of (−)-hydroxycitric acid and a process for preparing the same” (Laila Impex, priority 2004, dated 2010).

For series [1] the following is noted: free acid form, forming a lactone; liquid form unstable during storage.
For series [2] the following is noted: prior-art salt (US 5,783,603), statement in words.

`O=C(O)CC(O)(C(=O)O)C(O)C(=O)O` (single isomer, unassigned; (-)) [(−)-hydroxycitric acid]: in series [1], the stability entry is reported as “unstable”.

On to potassium salt of HCA, for which the hygroscopicity entry in series [2] was “hygroscopic”.
